# Reference: US8901111B2, “Aryl-substituted heterocyclic urea modulators of fatty acid amide hydrolase” (Janssen Pharmaceutica NV, priority 2009, dated 2014)
# Structures can show the parent of a compound that is named as a salt.
# Assays:
# rat FAAH = target: T1, rat FAAH (Rattus norvegicus, UniProt P97612); assay: Assay Method 2: FAAH assay, 3H-anandamide hydrolysis in homogenate of cells transfected with rat FAAH; type: biochemical; details: cell homogenate, 3H-AEA 80 nM, 1 h at rt, average of results
# T1 construct: expressed in transfected cells; crude homogenate
# T1 sequence (P97612 1-579): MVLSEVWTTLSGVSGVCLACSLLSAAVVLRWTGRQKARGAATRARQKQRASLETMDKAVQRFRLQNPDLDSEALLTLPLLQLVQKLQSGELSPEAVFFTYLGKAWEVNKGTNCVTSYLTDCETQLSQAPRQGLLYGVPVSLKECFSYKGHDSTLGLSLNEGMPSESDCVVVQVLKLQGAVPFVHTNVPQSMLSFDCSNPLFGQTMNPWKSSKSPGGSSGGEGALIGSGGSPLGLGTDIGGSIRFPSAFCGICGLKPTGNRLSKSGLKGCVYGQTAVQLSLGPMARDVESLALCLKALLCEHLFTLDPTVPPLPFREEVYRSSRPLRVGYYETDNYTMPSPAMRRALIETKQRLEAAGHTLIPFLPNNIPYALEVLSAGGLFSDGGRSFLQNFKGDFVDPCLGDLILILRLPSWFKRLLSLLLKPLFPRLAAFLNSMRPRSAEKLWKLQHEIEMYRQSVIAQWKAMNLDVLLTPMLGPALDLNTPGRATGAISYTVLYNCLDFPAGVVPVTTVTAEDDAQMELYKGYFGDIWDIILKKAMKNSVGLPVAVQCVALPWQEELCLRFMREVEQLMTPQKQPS
# Method: A. Transfection of Cells with Rat FAAH
# (§1) A 10-cm tissue culture dish with a confluent monolayer of SK-N-MC cells was split 2 days (d) prior to transfection. Using sterile technique, the media was removed and the cells were detached from the dish by the addition of trypsin. One fifth of the cells were then placed onto a new 10-cm dish. Cells were grown in a 37° C. incubator with 5% CO2 in Minimal Essential Media Eagle with 10% Fetal Bovine Serum. After 2 d, cells were approximately 80% confluent. These cells were removed from the dish with trypsin and pelleted in a clinical centrifuge. The pellet was re-suspended in 400 μL complete media and transferred to an electroporation cuvette with a 0.4 cm gap between the electrodes. Supercoiled rat FAAH cDNA (1 μg) was added to the cells and mixed. The voltage for the electroporation was set at 0.25 kV, and the capacitance was set at 960 μF. After electroporation, the cells were diluted into complete media (10 mL) and plated onto four 10-cm dishes. Because of the variability in the efficiency of electroporation, four different concentrations of cells were plated. The ratios used were 1:20, 1:10, and 1:5, with the remainder of the cells being added to the fourth dish. The cells were allowed to recover for 24 h before adding the selection media (complete media with 600 μg/mL G418). After 10 d, dishes were analyzed for surviving colonies of cells. Dishes with well-isolated colonies were used. Cells from individual colonies were isolated and tested.
# (§2) T84 frozen cell pellets or transfected SK-N-MC cells (contents of 1×15 cm culture dishes) were homogenized in 50 mL of FAAH assay buffer (125 mM Tris, 1 mM EDTA, 0.2% Glycerol, 0.02% Triton X-100, 0.4 mM Hepes, pH 9). The assay mixture consisted of 50 μL of the cell homogenate, 10 μL of the test compound, and 40 μL of anandamide [1-^3H-ethanolamine] (^3H-AEA, Perkin-Elmer, 10.3 Ci/mmol), which was added last, for a final tracer concentration of 80 nM. The reaction mixture was incubated at rt for 1 h. During the incubation, 96-well Multiscreen filter plates (catalog number MAFCNOB50; Millipore, Bedford, Mass., USA) were loaded with 25 μL of activated charcoal (Multiscreen column loader, catalog number MACL09625, Millipore) and washed once with 100 μL of MeOH. Also during the incubation, 96-well DYNEX MicroLite plates (catalog number NL510410) were loaded with 100 μL of MicroScint40 (catalog number 6013641, Packard Bioscience, Meriden, Conn., USA). After the 1 h incubation, 60 μL of the reaction mixture were transferred to the charcoal plates, which were then assembled on top of the DYNEX plates using Centrifuge Alignment Frames (catalog number MACF09604, Millipore). The unbound labeled ethanolamine was centrifuged through to the bottom plate (5 min at 2000 rpm), which was preloaded with the scintillant, as described above. The plates were sealed and left at rt for 1 h before counting on a Hewlett Packard TopCount.
# (§3) Results for compounds tested in these assays are summarized in Table 1, as an average of results obtained. Compounds were tested in the free base or trifluoroacetic acid salt form. Compounds tested in the trifluoroacetic acid salt form are indicated as such by a “*” designation after the example number. Where activity is shown as greater than (>) a particular value, the value is the solubility limit of the compound in the assay medium or the highest concentration tested in the assay.
# FAAH = target: T2, FAAH (Homo sapiens, UniProt O00519); assay: Assay Method 1: FAAH assay, 3H-anandamide hydrolysis in homogenate of cells transfected with human FAAH; type: biochemical; design: expressed in transfected cells; crude homogenate (T84 cell pellets named as alternative); details: cell homogenate, 3H-AEA 80 nM, 1 h at rt, average of results
# T2 sequence (O00519 1-579): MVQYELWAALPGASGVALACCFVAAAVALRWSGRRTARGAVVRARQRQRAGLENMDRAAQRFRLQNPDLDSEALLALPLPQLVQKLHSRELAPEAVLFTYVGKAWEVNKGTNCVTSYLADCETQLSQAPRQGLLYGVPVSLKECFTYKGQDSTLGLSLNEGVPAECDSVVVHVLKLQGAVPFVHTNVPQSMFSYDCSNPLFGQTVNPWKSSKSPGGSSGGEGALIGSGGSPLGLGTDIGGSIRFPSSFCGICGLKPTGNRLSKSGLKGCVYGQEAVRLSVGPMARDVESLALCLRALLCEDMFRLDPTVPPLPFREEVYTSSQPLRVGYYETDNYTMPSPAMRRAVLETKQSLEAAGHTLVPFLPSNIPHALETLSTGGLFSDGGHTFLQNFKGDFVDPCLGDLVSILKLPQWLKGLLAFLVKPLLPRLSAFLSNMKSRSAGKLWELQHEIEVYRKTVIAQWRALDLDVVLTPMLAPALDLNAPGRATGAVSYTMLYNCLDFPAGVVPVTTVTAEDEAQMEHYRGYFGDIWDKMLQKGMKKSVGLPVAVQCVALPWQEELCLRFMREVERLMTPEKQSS
# Method: A. Transfection of Cells with Human FAAH
# as §1, with “Supercoiled human” for “Supercoiled rat”, “[…]” for “960 μF.”
# as §2, §3
Structure (SMILES),IC50 (rat FAAH) [nM],IC50 (FAAH) [nM]
"O=C(Nc1cccnc1)N1CC(COc2ccc(Oc3ccccc3)cc2)C1 [Example 16, 3-(4-Phenoxy-phenoxymethyl)-azetidine-1-carboxylic acid pyridin-3-ylamide]",> 10000,> 10000
"O=C(Nc1cccnc1)N1CC(COc2ccc(-c3ccccc3)cc2)C1 [Example 18, 3-(Biphenyl-4-yloxymethyl)-azetidine-1-carboxylic acid pyridin-3-ylamide]",> 10000,> 10000
"O=C(Nc1cccnc1)N1CC(COc2ccc(OCc3ccccc3)cc2)C1 [Example 19, 3-(4-Benzyloxy-phenoxymethyl)-azetidine-1-carboxylic acid pyridin-3-ylamide]",> 10000,> 10000
"O=C(Nc1cccnc1)N1CC(COc2ccc3ccccc3c2)C1 [Example 20, 3-(Naphthalen-2-yloxymethyl)-azetidine-1-carboxylic acid pyridin-3-ylamide]",1600,1000
"O=C(Nc1cccnc1)N1CC(COc2ccc(Cl)c(Cl)c2)C1 [Example 21, 3-(3,4-Dichloro-phenoxymethyl)-azetidine-1-carboxylic acid pyridin-3-ylamide]",530,1000
"O=C(Nc1cccnc1)N1CC(COc2ccc3cccc(Cl)c3n2)C1 [Example 22, 3-(8-Chloro-quinolin-2-yloxymethyl)-azetidine-1-carboxylic acid pyridin-3-ylamide]",500,1300
"O=C(Nc1cccnc1)N1CC(COc2cccc(OCc3ccccc3)c2)C1 [Example 23, 3-(3-Benzyloxy-phenoxymethyl)-azetidine-1-carboxylic acid pyridin-3-ylamide]",940,300
"CS(=O)(=O)c1ccc(Oc2cccc(OCCC3CN(C(=O)Nc4cccnc4)C3)c2)cc1 [Example 27, 3-{2-[3-(4-Methanesulfonyl-phenoxy)-phenoxy]-ethyl}-azetidine-1-carboxylic acid pyridin-3-ylamide]",480,15
"O=C(Nc1cccnc1)N1CC(CCOc2cccc(OC(F)(F)F)c2)C1 [Example 31, 3-[2-(3-Trifluoromethoxy-phenoxy)-ethyl]-azetidine-1-carboxylic acid pyridin-3-ylamide]",900,3000
"O=C(Nc1cccnc1)N1CC(CCOc2cccc(Oc3ccccc3)c2)C1 [Example 32, 3-[2-(3-Phenoxy-phenoxy)-ethyl]-azetidine-1-carboxylic acid pyridin-3-ylamide]",430,360
"CCCCOc1cccc(OCCC2CN(C(=O)Nc3cccnc3)C2)c1 [Example 33, 3-[2-(3-Butoxy-phenoxy)-ethyl]-azetidine-1-carboxylic acid pyridin-3-ylamide]",2000,34

# The next compounds have a lower IC50 (rat FAAH) than those just listed; values first:
IC50 (rat FAAH) [nM],IC50 (FAAH) [nM],Structure (SMILES)
340,170,"O=C(Nc1cccnc1)N1CC(COc2cccc(Oc3ccccc3)c2)C1 [Example 17, 3-(3-Phenoxy-phenoxymethyl)-azetidine-1-carboxylic acid pyridin-3-ylamide]"
380,58,"CS(=O)(=O)c1ccc(Oc2cccc(OCC3CN(C(=O)Nc4cccnc4)C3)c2)cc1 [Example 24, 3-[3-(4-Methanesulfonyl-phenoxy)-phenoxymethyl]-azetidine-1-carboxylic acid pyridin-3-ylamide]"
230,50,"O=C(Nc1cccnc1)N1CC(COc2cccc(Oc3ccc(OC(F)(F)F)cc3)c2)C1 [Example 25, 3-[3-(4-Trifluoromethoxy-phenoxy)-phenoxymethyl]-azetidine-1-carboxylic acid pyridin-3-ylamide]"
200,120,"O=C(Nc1cccnc1)N1CC(COc2cccc(Oc3ccc(Cl)cc3)c2)C1 [Example 26, 3-[3-(4-Chloro-phenoxy)-phenoxymethyl]-azetidine-1-carboxylic acid pyridin-3-ylamide]"
1,1,"O=C(Nc1cnccc1Cl)N1CC(CCOc2cccc(Oc3ccc(Cl)cc3)c2)C1 [Example 28, 3-{2-[3-(4-Chloro-phenoxy)-phenoxy]-ethyl}-azetidine-1-carboxylic acid (4-chloro-pyridin-3-yl)-amide]"
400,53,"O=C(Nc1cccnc1)N1CC(CCOc2cccc(Oc3ccc(OC(F)(F)F)cc3)c2)C1 [Example 29, 3-{2-[3-(4-Trifluoromethoxy-phenoxy)-phenoxy]-ethyl}-azetidine-1-carboxylic acid pyridin-3-ylamide]"
54,30,"O=C(Nc1cccnc1)N1CC(CCOc2ccc(Cl)c(Cl)c2)C1 [Example 34, 3-[2-(3,4-Dichloro-phenoxy)-ethyl]-azetidine-1-carboxylic acid pyridin-3-ylamide]"
350,160,"O=C(Nc1cccnc1)N1CC(CCOc2ccc3ccccc3c2)C1 [Example 35, 3-[2-(Naphthalen-2-yloxy)-ethyl]-azetidine-1-carboxylic acid pyridin-3-ylamide, trifluoroacetate salt]"
